{"source": "patent US20070141581A1", "about": "“Membrane androgen receptor as a therapeutic target for the prevention/promotion of cell death” (University of North Texas Health Science Center at Fort …, priority 2005, published 2007)", "key": {"[1]": {"system": "ERK", "experiment": "ERK phosphorylation in C6 glial cells (Western blot)", "format": "cell-based, Rat", "protocol": "(§1) Materials and Methods. Cell culture. Rat glioma cells (C6; American Type Culture Collection, Manassas, Va.) were propagated in Dulbecco's Modified Eagle Medium (DMEM; Invitrogen, Carlsbad, Calif.) supplemented with 10% charcoal-stripped fetal bovine serum (FBS; Hyclone, Logan, Utah), and maintained at 37° C. in a humidified environment containing 5% CO2.\n(§2) Treatment of cultures. C6 glial cells were treated with either vehicle control (DMSO, 0.1%), dihydrotestosterone (DHT) (Steraloids Inc., Newport, R.I.), or 5α-androstan-17β-ol-3-one-3-o-carboxymethyloxime:BSA (DHT-BSA) (Steraloids Inc.) at the concentrations indicated for 30 minutes, to assess the effects of these hormones on ERK and Akt phosphorylation. […] Inhibition of the classical androgen receptor was achieved using the androgen receptor antagonist, Flutamide (3 μM; Sigma-Aldrich, St. Louis, Mo.), which was applied 30 minutes prior to treatment with the hormone. Inhibition of MEK, the signaling protein upstream of ERK was achieved using U0126 (10 μM; Cell Signaling, Beverly, Mass.), also pre-incubated for a period of 30 minutes prior to hormone administration.\n(§3) Western blot analysis. Following treatment with hormone and/or inhibitor, C6 glial cells were harvested into lysis buffer containing protease and phosphatase inhibitors as described previously (25). Following homogenization, samples were centrifuged at 99,000×g for 15 min at 4° C., and the resulting supernatants were evaluated for total protein concentrations using the BioRad DC (Biorad Labs, Hercules, Calif.) protein assay kit [based on the method of Lowry; (26)]. Sample lysates were loaded onto a sodium dodecyl sulfate (SDS), 10% polyacrylamide gel (PAGE), subjected to electrophoresis, and subsequently transferred onto a polyvinylidene difluoride membrane (PVDF; 0.22 μm pore size, BioRad). The membrane was blocked for 6 hrs with a 3% BSA in 0.2% Tween-containing TBS (TBS-T) solution prior to application of the primary antibody. The following primary antibodies were used: for the detection of the androgen receptor, anti-AR (C-19) (1:200; Santa Cruz Biotechnology); for the detection of the phosphorylated form of Akt: rabbit anti-phospho-Akt (Ser473; 1:1000; Cell Signaling, Beverly, Mass.), for the detection of total Akt, anti Akt (1:1000; Cell Signaling); for the detection of the phosphorylated form of ERK1/2, rabbit anti phospho-p44/42 Map Kinase (Thr202/Tyr204, 1:1000; Cell Signaling); for the detection of total ERK1 and ERK2, goat anti-ERK1 (C-16, 1:500)/goat anti-ERK2 (C-14, 1:500; Santa Cruz Biotechnology). Antibody binding to the membrane was detected using a secondary antibody (either goat anti-rabbit or rabbit anti-goat) conjugated to horseradish peroxidase (1:20,000; Pierce, Rockford, Ill.) and visualized using enzyme-linked chemiluminescence (ECL, Amersham, Arlington Heights, Ill.) with the aid of the UVP imaging system. Phospho-Akt and phosphoERK blots were re-probed with anti-Akt or anti ERK1/2 antibodies to ensure equal loading across lanes.\n(§4) Statistical Analysis. Densitometric analysis of the Western blots was conducted using the LabWorks Image Acquisition and Analysis Software (UVP Inc., Upland, Calif.). Densitometric data from at least three independent studies was subjected to an analysis of variance (ANOVA), followed by a Tukey's post hoc analysis for the assessment of group differences, and presented as a bar graph depicting the average±S.E.M., using the GraphPad Software (San Diego, Calif.)."}, "[2]": {"system": "Akt", "experiment": "Akt phosphorylation in C6 glial cells (Western blot)", "format": "cell-based, Rat", "protocol": "as §1, §2, §3, §4"}, "[3]": {"system": "C6 glial cells", "experiment": "LDH release / iodoacetic acid (IAA) induced cell death of C6 glial cells", "format": "cell-based, Rat", "protocol": "Triton-X (Tr-X, 0.9%)-induced lysis of cells served as the positive control for LDH release. Estradiol (E2, 10 μM) treatment of cells served as the positive control for protection against IAA-induced LDH release. Data are representative of two independent studies. The effect shown in FIG. 10, is in sharp contrast to the protective effect of DHT reported previously, and supports further the observation that two, potentially competing, mechanisms regulate the effects of androgens on cell viability. In all studies that used the membrane impermeable androgen, the DHT-BSA preparation was filtered using a 10 kDa nominal cut-off column prior to application of this steroid hormone conjugate, to ensure that the effects of DHT-BSA were not attributed to, or confounded by the presence of free (unconjugated) DHT. Stevis, et al., (Stevis P E, Deecher D C, Suhadolnik L, Mallis L M, Frail D E 1999 Differential effects of estradiol and estradiol-BSA conjugates. Endocrinology 140:5455-8) have described that the commercially available preparation of estradiol-conjugated to BSA (E2-BSA), for example, was contaminated with some free estradiol."}, "[4]": {"system": "membrane-associated androgen receptor", "experiment": "Flow cytometry binding of DHT-BSA-FITC to the cell surface of live C6 glial cells", "design": "species or system Rat", "conditions": "20-fold molar excess of DHT (1 mM) vs DHT-BSA-FITC 50 μM", "procedure": "Flow cytometry. Briefly, C6 glial cells (10^6 cells) were pipetted into a 1.5 ml micro-centrifuge tube, centrifuged at 250×g for 5 minutes and washed twice with 1 ml of PBS. […] In parallel, cells were re-suspended in PBS treated with BSA-FITC (50 μM; Sigma Aldrich), serving as the control for the detection of “non-specific binding”. Following this incubation period, the cells were washed twice in PBS and resuspended in 500 μl of PBS. The labeled C6 glial cells were injected into an EPICS XL-MCL flow cytometer (Beckman Coulter) and analyzed with System 2 software (Beckman Coulter).\nIn order to determine if DHT-BSA binds to a specific site on the cell surface (indicative of a membrane-associated androgen receptor), the binding of the fluorescently-labeled DHT-BSA (DHT-BSA-FITC) in C6 glial cells was evaluated. Non-“fixed” and non-permeabilized C6 glial cells were treated with DHT-BSA-FITC (50 μM) in the presence or absence of 20-fold molar excess of DHT (1 mM). Incubation of the cells with BSA-FITC alone for 30 min at 4° C. provided a measure of non-specific binding.\nTo determine if DHT-BSA binds to surface (plasma membrane) receptors, C6 glial cells were treated with DHT-BSA-FITC (50 μM) for 30 min. in the presence/absence of a 20-fold molar excess of DHT (1 mM). Samples were washed and analyzed using flow cytometric analysis."}, "[5]": {"system": "hippocampal neuron damage", "conditions": "kainic acid model, reference 33; cited from earlier work"}}}
{"compound": "5α-androstan-17β-ol-3-one-3-o-carboxymethyloxime:BSA [DHT-BSA]", "values": [{"measurement": "ERK phosphorylation (phospho-ERK levels relative to sham control)", "setting": "[1]; 0.01, 0.1, 1.0 μM, 30 min, particularly at 100 nM and 1 μM", "value": "substantial suppression of ERK phosphorylation"}, {"measurement": "concentration at which the inhibitory effect on ERK phosphorylation becomes evident", "setting": "[1]; 30 min, C6 glial cells", "value": 0.1, "unit": "µM"}, {"measurement": "effect on DHT-induced ERK phosphorylation", "setting": "[1]; co-applied with DHT 10 nM, 30 min, 0.01, 0.1, 1 μM, dose dependent", "value": "blocked the effect of DHT"}, {"measurement": "Akt phosphorylation (phospho-Akt levels relative to sham control)", "setting": "[2]; 0.01, 0.1 and 1 μM, 30 min", "value": "dose-dependent suppression of Akt phosphorylation"}, {"measurement": "concentration at which the inhibitory effect on Akt phosphorylation becomes evident", "setting": "[2]; 30 min, C6 glial cells", "value": 0.1, "unit": "µM"}, {"measurement": "cellular damage as assessed by LDH release into the media", "setting": "[3]; increasing concentrations, alone", "value": "did not result in cellular damage"}, {"measurement": "toxicity associated with IAA (LDH release)", "setting": "[3]; with low level insult IAA 10 μM", "value": "significantly increased the toxicity associated with IAA"}]}
{"compound": "C[C@]12CCC(=O)C[C@@H]1CC[C@@H]1[C@@H]2CC[C@]2(C)[C@@H](O)CC[C@@H]12", "note": "[DHT, dihydrotestosterone]", "values": [{"measurement": "ERK phosphorylation at higher concentrations", "setting": "[1]", "value": "did not result in an increase in ERK phosphorylation"}, {"measurement": "increase in the phosphorylation of ERK", "setting": "[1]", "value": 2.5, "unit": "fold"}, {"measurement": "Akt phosphorylation (phospho-Akt levels)", "setting": "[2]", "value": "induced an increase in Akt phosphorylation"}, {"measurement": "displacement of DHT-BSA-FITC labeling", "setting": "[4]", "value": "displaced"}, {"measurement": "amount of hippocampal neuron damage", "setting": "[5]", "value": "reduce the amount of hippocampal neuron damage"}]}
{"compound": "C[C@]12CCC(=NOCC(=O)O)C[C@@H]1CC[C@@H]1[C@@H]2CC[C@]2(C)[C@@H](O)CC[C@@H]12", "note": "[DHT:CMO, 5α-androstan-17β-ol-3-one-3-o-carboxymethyloxime]", "values": [{"measurement": "ERK phosphorylation by CMO-modified DHT", "setting": "[1]; 0.01, 0.1, 1 μM, 30 min", "value": "did not alter the ability of the androgen to elicit ERK phosphorylation"}]}
{"compound": "CC(C)C(=O)Nc1ccc([N+](=O)[O-])c(C(F)(F)F)c1", "note": "[Flutamide]", "values": [{"measurement": "effect of AR antagonist on DHT-induced Akt phosphorylation", "setting": "[2]; Flutamide 3 μM", "value": "failed to inhibit"}]}
{"compound": "N#CC(=C(/N)Sc1ccccc1N)/C(C#N)=C(\\N)Sc1ccccc1N", "note": "[U0126]", "values": [{"measurement": "effect of MEK1/2 inhibitor on DHT-induced ERK phosphorylation", "setting": "[1]", "value": "blocked"}]}
{"compound": "Pertussis toxin", "values": [{"measurement": "effect of Gi/o inhibitor on DHT-BSA-mediated suppression of ERK phosphorylation", "setting": "[1]; 50 μM, data not shown", "value": "failed to prevent"}, {"measurement": "effect of Gi/o inhibitor on DHT-BSA-mediated suppression of Akt phosphorylation", "setting": "[2]; 50 μM, data not shown", "value": "failed to prevent"}]}
